According to article PMC5701947, “β1-Adrenergic Receptor Contains Multiple IA^k and IE^k Binding Epitopes That Induce T Cell Responses with Varying Degrees of Autoimmune Myocarditis in A/J Mice” (Frontiers in Immunology, 2017):
One block for each substance: values may come before it. No end group written: not given here.

How the values were obtained:
[1] = test system: CD4 and CD8 T cells; settings: cited from earlier work
Text: Expectedly, sections from control groups were negative for all the markers tested except rare CD11b^+ cells.

[2] = test system: T cells (lymph node cells/splenocytes from immunized animals); test: T cell proliferation assay ([3H]-thymidine); type: cell-based, A/J mice; settings: for T cell responses: fold vs medium control; for T cell responses (in words): proliferation, 0–100 µg/ml, 2 days + 16 h [3H]-thymidine, cpm
Method: At termination, lymph nodes (maxillary, mandibular, axillary, inguinal, and popliteal) and spleens were harvested from immunized animals to prepare single cell suspensions. Similarly, splenocytes were prepared from naive animals. After lysing the erythrocytes and washing, cell pellets were suspended in RPMI medium containing 10% fetal bovine serum, 1 mM sodium pyruvate, 4 mM L-glutamine, 1 × each of non-essential amino acids and vitamin mixture, and 100 U/ml penicillin–streptomycin (Lonza, Walkersville, MD, USA; hereafter called growth medium). In some experiments, CD4 T cells and CD8 T cells were enriched to a purity of ~95% by negative selection based on magnetic separation using IMAG (BD Biosciences, San Jose, CA, USA) ([31]). To stimulate CD4 and CD8 T cells, syngeneic naive irradiated splenocytes loaded with peptides were used as antigen-presenting cells at a ratio of 1:1. Cells were stimulated at a density of ~5 × 10^6 cells/ml in triplicates with or without the immunizing peptides (0–100 µg/ml) in growth medium. RNase 43–56 or HEL 46–61 were used as irrelevant controls. After 2 days, cells were pulsed with tritiated ^3[H]-thymidine (1 μCi/well; MP Biomedicals, Santa Ana, CA, USA), and 16 h later, proliferative responses were measured as counts per minute (cpm) using a Wallac liquid scintillation counter (Perkin Elmer, Waltham, MA, USA) ([26], [28], [30]).

[3] = test system: CD4 T cells; test: IA^k dextramer staining of CD4 T cells; type: cell-based, A/J mice; settings: IA^k dextramers
Text: To enumerate the frequencies of antigen-specific CD4 T cells, we created IA^k dextramers for β1AR 171-190 and β1AR 211–230, and IE^k dextramers for β1AR 181–200. To create IA^k dextramers, the nucleotide sequence for β1AR 171–190 ([…]) and β1AR 211–230 ([…]) was inserted into the IA^k-β construct that we had described previously ([35], [39]), whereas IA^k/RNase 43–56 (control) dextramers were readily available in our laboratory ([30], [35], [40]). The soluble, IA^k/β1AR 171–190 and IA^k/β1AR 211–230 molecules were expressed in sf9 cells using baculovirus expression system. After purifying through anti-IA^k-affinity column, the IA^k/β1AR 171–190 and IA^k/β1AR 211–230 monomers were biotinylated and dextramers were derived using streptavidin (SA)/fluorophore-conjugated dextran molecules as described previously ([35], [39]). […]
To stain with dextramers, lymphocytes obtained from lymph nodes and spleens from immunized animals were stimulated with the immunizing peptides namely, β1ARAc 171–190, β1ARAc 181–200, and β1ARAc 211–230 (20 µg/ml) for 2 days and growth medium containing interleukin (IL)-2 (IL-2 medium) was then added. […] After washing, and acquisition by flow cytometry, percent dextramer^+ (dext^+) cells were analyzed within the live cells (7-AAD^−) using Flow Jo software ([34], [35], [39]).

[4] = test system: serum antibodies (Igs and isotypes) of immunized mice; test: ELISA, antibodies that react with β1ARAc peptides; type: in vivo, A/J mice; settings: serum 1:100, day 21, OD 405 nm; for Antibody response, total Igs (in words): five animals per group
Method: ELISA was used to measure antibodies that react with β1ARAc peptides in the serum samples collected from immunized animals at termination on day 21 as described previously ([26]). […] After washing/blocking, serum samples (1:100) were added in duplicates, and the plates were incubated at 37°C for 1 h followed by addition of HRP-labeled goat anti-mouse immunoglobulins (Igs), IgG1, IgG2a, IgG2b, IgG3, IgM, IgA, and IgE (Southern Biotech, Birmingham, AL, USA) as secondary antibodies. Two hours after incubation at RT, 1 × tetramethylbenzidine solution was added as a substrate (eBioscience), and reactions were stopped using 1 M phosphoric acid. The plates were read at 405 nm using an automated ELISA reader (BioTek instruments, Winooski, VT, USA) to measure OD values ([26], [46]).

[5] = test system: A/J mice (hearts); test: Induction of myocarditis by active immunization with peptides (histology); type: in vivo
[6] = biological target: T1, IA^k (Mus musculus, UniProt P01910+P06343); test: MHC class II-binding assay, IA^k; set-up: species or system A/J mice; settings: soluble IA^k monomers, reference HEL 46–61; Figure S1B
T1 construct: soluble IA^k and IE^k monomers were expressed; class II-associated invariant-chain peptide (CLIP) 88–102 (VSQMRMATPLLMRPM) with thrombin cleavage site (cleaved yes); made in house; host or cells: baculovirus expression (sf9 cells are named only for the IA^k dextramer constructs)
Method: A/J mice express two MHC class II alleles, IA^k and IE^k ([33], [34]), and to determine the affinities of β1AR peptides, soluble IA^k and IE^k monomers were expressed ([34], [35]). In brief, the β-chain in each of IA^k and IE^k constructs contain sequence for class II-associated invariant-chain peptide 88–102 (VSQMRMATPLLMRPM) linked with thrombin cleavage site ([34], [35]). After expressing in the baculovirus, soluble IA^k and IE^k monomers were treated with thrombin (20 U/mg; Novagen, Madison, WI, USA) to release class II-associated invariant-chain peptide leading us to obtain empty IA^k and IE^k molecules. Reaction mixtures were prepared to include empty IA^k or IE^k monomers (0.35 µg), competitor peptides (β1ARAc 171–190, β1ARAc 181–200, β1ARAc 201–220, and β1ARAc 211–230) (0.00001–100 µM), and constant amounts of the biotinylated reference peptides HEL 46–61 (for IA^k) or MCC 82–103 (for IE^k) (1 µM) in a buffer containing 50 mM sodium phosphate pH 7.0, 100 mM sodium chloride, 1 mM EDTA, and 1 × protease inhibitor (Sigma-Aldrich, St. Louis, MO, USA) ([36]–[38]). After incubating overnight at RT, the mixtures were transferred to 96-well white fluorescence plates coated with anti-IA^k (clone 10-2.16, BioXcell, West Lebanon, NH, USA), and anti-IE^k (clone M5/114, BioXcell) Abs (10 µg/ml) in 0.2 M sodium phosphate buffer, pH 6.8, blocked with 2% bovine casein; and the plates were incubated on a rocker at RT for 1 h. Finally, after adding 100 µl of europium-labeled streptavidin (0.1 µg/ml) and dissociation-enhanced lanthanide fluoroimmunoassay (DELFIA) enhancement solution (Perkin Elmer) sequentially, fluorescence intensities were measured at excitation/emission wavelengths of 340/615 nm using a Victor Multilabel Plate Reader (Perkin Elmer). The IC50 values were determined based on the concentrations of competitor peptides needed to prevent 50% binding of the reference peptides as we have described previously ([26], [28], [30]).

[7] = acetylated peptides in CFA/PT (100 µg individually, 50 µg each when pooled), days 0 and 7, day 21

T1 sequence (P01910 24-218 limits assumed): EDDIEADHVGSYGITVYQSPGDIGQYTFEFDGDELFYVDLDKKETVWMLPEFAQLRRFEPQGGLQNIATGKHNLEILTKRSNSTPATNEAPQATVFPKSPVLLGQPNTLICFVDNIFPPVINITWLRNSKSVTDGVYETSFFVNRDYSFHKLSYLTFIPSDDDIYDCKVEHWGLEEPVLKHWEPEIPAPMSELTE
T1 sequence (P06343 28-224 limits assumed): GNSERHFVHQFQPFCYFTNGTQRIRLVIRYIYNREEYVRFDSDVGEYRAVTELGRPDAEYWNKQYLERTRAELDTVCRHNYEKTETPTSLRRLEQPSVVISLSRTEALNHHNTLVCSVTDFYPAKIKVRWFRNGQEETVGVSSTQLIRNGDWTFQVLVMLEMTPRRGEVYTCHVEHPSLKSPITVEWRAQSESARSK

Substance: Myhc 334–352: cardiac myosin heavy chain-α 334–352 (DSAFDVLSFTAEEKAGVYK; UniProt Q02566 334-352, looked up, fragment)
Common epitope for CD4 and CD8 T cells (in words) [1]: common epitopes for both CD4 and CD8 T cells

Substance: VNTFVHESLADVQA [RNase 43–56, bovine ribonuclease 43–56, irrelevant control, reference compound]
T cell responses ([2]; 10 μg/ml, animals immunized with pool I): 1.05 fold
T cell responses ([2]; 10 μg/ml, animals immunized with pool II): 1.06 fold
T cell responses ([2]; 10 μg/ml, animals immunized with pool III): 1.04 fold
T cell responses ([2]; 10 μg/ml, animals immunized with pool IV): 1.06 fold
T cell responses ([2]; 10 μg/ml, animals immunized with pool IX): 0.80 fold
T cell responses ([2]; 10 μg/ml, animals immunized with pool V): 1.06 fold
T cell responses ([2]; 10 μg/ml, animals immunized with pool VI): 0.73 fold
T cell responses ([2]; 10 μg/ml, animals immunized with pool VII): 1.16 fold
T cell responses ([2]; 10 μg/ml, animals immunized with pool VIII): 0.91 fold
T cell responses ([2]; 100 μg/ml, animals immunized with pool I): 1.42 fold
T cell responses ([2]; 100 μg/ml, animals immunized with pool II): 1.20 fold
T cell responses ([2]; 100 μg/ml, animals immunized with pool III): 1.14 fold
T cell responses ([2]; 100 μg/ml, animals immunized with pool IV): 1.15 fold
T cell responses ([2]; 100 μg/ml, animals immunized with pool IX): 0.83 fold
T cell responses ([2]; 100 μg/ml, animals immunized with pool V): 1.14 fold
T cell responses ([2]; 100 μg/ml, animals immunized with pool VI): 1.10 fold
T cell responses ([2]; 100 μg/ml, animals immunized with pool VII): 1.16 fold
T cell responses ([2]; 100 μg/ml, animals immunized with pool VIII): 0.81 fold
T cell responses (in words) [2]: lacking
percent dext^+ CD4^high T cells ([3]; cells from β1ARAc 171–190-immunized mice, P = 0.049 vs control dextramer, Figure 4A): 0.52 ± 0.08%
percent dext^+ CD4^high T cells ([3]; cells from β1ARAc 211–230-immunized mice, P = 0.0003 vs control dextramer, Figure 4C): 0.12 ± 0.01%
Antibody response, total Igs (in words) [4]: lacking

Substance: interphotoreceptor retinoid-binding protein 1–20: CD4 and CD8 common epitope (GPTHLFQPSLVLDMAKVLLD; UniProt P10745 18-37, looked up, fragment)
Common epitope for CD4 and CD8 T cells (in words) [1]: common epitopes for both CD4 and CD8 T cells

Substance: myelin oligodendrocyte glycoprotein 35–55: CD4 and CD8 common epitope (MEVGWYRSPFSRVVHLYRNGK; UniProt Q61885 63-83, looked up, fragment)
Common epitope for CD4 and CD8 T cells (in words) [1]: common epitopes for both CD4 and CD8 T cells

Substance: β1ARAc 191–210: N-terminal acetylated mouse β1-adrenergic receptor peptide 191–210 (Ac-FLPILMHWWRAESDEARRCY; UniProt P34971 191-210, looked up, fragment)
T cell responses (in words) [2]: non-T cell activators
Myocarditis incidence [5, 7]: 0%
Myocarditis incidence (animals with disease/total) [5, 7]: 0/5
Inflammatory foci ([5]; acetylated peptides in CFA/PT, mean ± SEM of myocarditic animals, day 21): 0
Antibody response, total Igs (in words) [4]: to some degree

IA^k binding (in words) [6]: failed to bind IA^k molecule
Substance: β1ARAc 201–220: N-terminal acetylated mouse β1-adrenergic receptor peptide 201–220 (Ac-AESDEARRCYNDPKCCDFVT; cysteine pairing not given here; UniProt P34971 201-220, looked up, fragment)
T cell responses (in words) [2]: non-T cell activators
Myocarditis induction (in words) ([5]; acetylated peptide, standard CFA/PT protocol): failed to induce myocarditis
Antibody isotypes produced, IgG and IgM (in words) [4]: all IgG isotypes (IgG1, IgG2a, IgG2b, IgG3) including IgM
Antibody response, total Igs (in words) [4]: antibody response
